Laboratory results as given in US12168665B2, “Substituted imidazo[l,2-a]pyrazines and pyrazino[l,2-a] pyrimidines as topical agents for dermatological applications” (Genesis Molecular Technologies, Inc., priority 2020, dated 2024).
Entries after “also recorded” stand apart in the source; their conditions may differ. Like-named read-outs stand apart in the source and are kept apart here. One block for each compound: values may come before it.

Legend:
[1] = test system: TCF/LEF reporter activity; assay: Wnt/driven TCF/LEF reporter (Luc) activity in HEK293 cell line assay; type: cell-based; conditions: TCF/LEF reporter (Luc)-HEK293 cells, LiCl and mouse Wnt3a stimulation, read-out: IC50 value of compounds against TCF/LEF reporter activity
Description: Assay of Wnt/driven TCF/LEF reporter (Luc) activity in a stably transfected cell line. The Wnt/driven TCF/LEF reporter (Luc) activity in a stably transfected cell line assay was performed at BPS Bioscience (San Diego, CA 92121, USA). In brief, TCF/LEF reporter (Luc)-HEK293 cells are harvested from culture in growth medium and seeded at a density of about 35,000 cells per well into a white clear-bottom 96-well microplate in 80 μL of assay medium. 20 μL of 50 mM LiCl solution in assay medium are added to each well (final concentration 10 mM), and cells are incubated at 37° C. in a CO2 incubator for 16 hours. 10 μL of threefold serial dilution of mouse Wnt3a in assay medium are added to each stimulated well. The plate is incubated at 37° C. in a CO2 incubator for 6 hours. 100 μL of ONE-Step™ Luciferase Assay buffer per well are added and the plate is shaken for 30 min prior to measuring luminescence using a luminometer.
Exemplary compounds, wherein Y is hydrogen, of the present invention were tested for Wnt/driven TCF/LEF reporter (Luc) activity in HEK293 cell line assay. […] The positive control compound for this assay is IWR-1-endo, which is known in the art as a non-CBP/β-catenin Wnt antagonist, which stabilizes Axin-dependent β-catenin destruction (Chen, B., et al., Nat. Chem. Biol. 2009; 5(2):100-107).

[2] = test system: CBP/β-catenin (Wnt-driven luciferase activity); assay: SuperTOPFLASH cell-based luciferase assay (Hek293, STF1.1); conditions: Homo sapiens; Hek293 STF1.1 cells; tested at 2.5, 5, 10 and 20 μM
Description: SuperTOPFLASH Cell-based Luciferase Assay. Hek-293,STF1.1 cells are maintained in DMEM, 10% FBS, Pen-Strep supplemented with 200 μg/mL G418. On the day prior to assay, cells are split into a white, opaque 96-well plate at 10,000 cells per well in 50 μL of complete medium without G418 (for screening of Wnt-signaling inhibitors, G418 can be left out during screening process). After allowing the cells to stabilize and attach overnight, 40 μL of complete medium (without G418) containing 2.5× final concentration of compound or DMSO control is added to the cells and allowed to incubate for 1 hour at 37° C., 5% CO2 prior to adding […] of a 100 mM LiCl solution prepared in complete medium (without G418). After 24 hours, 100 µL of BrightGlo™ (Promega, Cat. #: G7573) is added to each well and the plate is shaken for 5 minutes prior to reading on the Perkin-Elmer EnVision™ Plate Reader. […]

[3] = animal toxicity studies and clinical studies; cited from earlier work
[4] = test system: hapten-induced atopic dermatitis-like dermatitis; conditions: preclinical study (Matsuda-Hirose 2019); cited from earlier work
human skin = assay: Cosmetic evaluation on human skin, topical formulation; type: in vivo; conditions: 0.15% wt./wt. topical formulation twice daily, 8 weeks
Description: For cosmetic evaluation, compound 6 (0.15% wt./wt.) formulated in an aqueous based vehicle was topically applied twice daily (0.25 g formulation per application) during an 8-week testing period according to the following daytime/nighttime regimen.
During the study, subjects used no other skin care regimen. Prior to application of the test formulation, subjects washed their faces with Purpose cleanser, rinsed and then dry patted their faces. For each daytime and each nighttime application, 0.25 g of the test formulation (2 pumps from an applicator) was then applied to the entire face, around the eyes and onto the neck. Photographs (without any face and eye make-up), and self-assessment was performed before and after the 8-week period.

[5] = Stability by analytical HPLC analysis; type: physicochemical
Description: Analytical HPLC analysis was performed on an Agilent 1100 HPLC with a Phenomenex Luna C18 (2) column (3 micron, 150×4.6 mm id) at a flow rate of 0.6 mL/min, eluting with a binary solvent system A and B using a 35%-70% B in 20 min and then 70%-95% B in 5 min (gradient elution 1), or 70%-95% B in 25 min and then 95%-100% B in 3 min (gradient elution 2) (A: Milli-Q water with 0.1% TFA; B: CH3CN with 0.1% TFA). NMR spectra were recorded on a Bruker AV-300 300 MHz NMR instrument using DMSO-d6 or CDCl3 with TMS as an internal standard. Mass spectra data was obtained with Bruker Esquire Liquid Chromatography-Ion Trap Mass Spectrometer.
As is readily apparent, compound 6 is stable at room temperature both in a solid form and in organic solvents (e.g., CH3CN, and CH3OH).

IC50 ([1]; Homo sapiens): 11.2 µM
SMILES: O=C1[C@H](Cc2ccc(O)cc2)N2C(=O)[C@H](CO)N(C(=O)NCc3ccccc3)[C@H]2CN1Cc1cccc2ccccc12 [Compound 4, (2S,5S,8a5)-N-benzyl-5-(4-hydroxybenzyl)-2-(hydroxymethyl)-7-(naphthalen-1-ylmethyl)-3,6-dioxohexahydroimidazo[1,2-a]pyrazine-1(5H)-carboxamide]

IC50 ([1]; Homo sapiens): > 25 µM
SMILES: O=C1[C@H](Cc2ccc(O)cc2)N2C(=O)C[C@H](CO)N(C(=O)NCc3ccccc3)[C@H]2CN1Cc1cccc2ccccc12 [Compound 2, (2R,6S,9aS)—N-benzyl-6-(4-hydroxybenzyl)-2-(hydroxymethyl)-8-(naphthalen-1-ylmethyl)-4,7-dioxohexahydro-2H-pyrazino[1,2-a]pyrimidine-1(6H)-carboxamide]

IC50 ([1]; Homo sapiens): 16 µM
IC50 [2]: 2.5 µM
SMILES: O=C1[C@H](Cc2ccc(O)cc2)N2C(=O)C[C@@H](CO)N(C(=O)NCc3ccccc3)[C@H]2CN1Cc1cccc2ccccc12 [Compound 3, (2S,6S,9aS)—N-benzyl-6-(4-hydroxybenzyl)-2-(hydroxymethyl)-8-(naphthalen-1-ylmethyl)-4,7-dioxohexahydro-2H-pyrazino[1,2-a]pyrimidine-1(6H)-carboxamide]

Second part, the compound before the results:

SMILES: O=C1[C@H](Cc2ccc(O)cc2)N2C(=O)[C@@H](CCO)N(C(=O)NCc3ccccc3)[C@H]2CN1Cc1cccc2ccccc12 [Compound 5, (2R,5S,8a5)-N-benzyl-5-(4-hydroxybenzyl)-2-(2-hydroxyethyl)-7-(naphthalen-1-ylmethyl)-3,6-dioxohexahydroimidazo[1,2-a]pyrazine-1(5H)-carboxamide]
IC50 ([1]; Homo sapiens): > 25 µM

SMILES: O=C(Nc1cccc2cccnc12)c1ccc(N2C(=O)[C@@H]3[C@H](C2=O)[C@@H]2C=C[C@H]3C2)cc1 [IWR-1-endo, reference compound]
IC50 [1]: 0.2 µM

SMILES: O=C1[C@H](Cc2ccc(O)cc2)N2C(=O)CCN(C(=O)NCc3ccccc3)[C@H]2CN1Cc1cccc2ccccc12 [ICG-001]
Safety at effective levels [3]: extremely safe
Effect on hapten-induced atopic dermatitis-like dermatitis [4]: prevents the emergence of hapten-induced atopic dermatitis-like dermatitis

SMILES: CCCCCCCCCCCC(=O)OC[C@@H]1CC(=O)N2[C@H](CN(Cc3cccc4ccccc34)C(=O)[C@@H]2Cc2ccc(O)cc2)N1C(=O)NCc1ccccc1 [Compound 6, (2S,6S,9aS)-1-(benzylcarbamoyl)-6-(4-hydroxybenzyl)-8-(naphthalen-1-ylmethyl)-4,7-dioxooctahydro-2H-pyrazino[1,2-a]pyrimidin-2-yl)methyl dodecanoate]
Improvement of skin appearance (wrinkles, redness) (human skin): improvement of skin appearance (e.g., reducing the appearance of wrinkles and redness) is achieved; also recorded: Skin improvement (e.g., reducing the extent and appearance of wrinkles) was visible
Degradation product detected by analytical HPLC ([5]; after 4 days at room temperature): No degradation product
Stability at room temperature ([5]; solid form and organic solvents (CH3CN, CH3OH), analytical HPLC): stable
